Our source for the EC50 and 2.1/2.2 values is US11028051B2, “Tetrahydroquinoline-based bromodomain inhibitors” (St. Jude Children's Research Hospital, priority 2016, dated 2021).

Holding throughout (experiment): competitive TR-FRET assay, BET-BD with acetylated peptide ligand
Holding throughout (format): binding
In general terms: TR-FRET usually uses a lanthanide donor and a delayed reading to cut background.

For one assay, the target named is BRD4-BD2 (Homo sapiens (Human), UniProt O60885). Particulars: BRD4-BD2; Table 11 additional modifications; read-out: 4.2 EC50. The method, then:
(§1) Inhibitor potency was determined using a competitive TR-FRET assay as detailed herein, measuring interaction of the respective BET-BD with an acetylated peptide ligand (Table 2).

The target in another assay is BRD2-BD2 (Homo sapiens (Human), UniProt P25440). Particulars: for EC50: BRD2-BD2, Table 11 additional modifications, read-out: 2.2 EC50; for 2.1/2.2: ratio of BRD2-BD1 EC50 to BRD2-BD2 EC50 (selectivity). The method, then:
as §1

A further assay deals with BRD3-BD1 (Homo sapiens (Human), UniProt Q15059). The note with it: BRD3-BD1; Table 11 additional modifications; read-out: 3.1 EC50. The method, then:
as §1

Another assay has as its target BRD4-BD1 (Homo sapiens (Human), UniProt O60885). The note with it: BRD4-BD1; Table 11 additional modifications; read-out: 4.1 EC50. The method, then:
as §1

A further assay has as its target BRD2-BD1 (Homo sapiens (Human), UniProt P25440). Particulars: BRD2-BD1; Table 11 additional modifications; read-out: 2.1 EC50. The method, then:
as §1

Molecules are shown by their SMILES.

Sequence of BRD2-BD2 (P25440 344-453): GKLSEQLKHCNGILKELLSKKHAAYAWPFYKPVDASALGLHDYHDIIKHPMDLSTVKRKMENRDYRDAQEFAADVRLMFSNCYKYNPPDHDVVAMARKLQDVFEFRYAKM
Sequence of BRD2-BD1 (P25440 74-180): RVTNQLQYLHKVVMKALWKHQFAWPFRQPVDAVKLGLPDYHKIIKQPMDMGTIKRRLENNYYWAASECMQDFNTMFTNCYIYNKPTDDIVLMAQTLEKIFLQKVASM
Sequence of BRD3-BD1 (Q15059 34-140): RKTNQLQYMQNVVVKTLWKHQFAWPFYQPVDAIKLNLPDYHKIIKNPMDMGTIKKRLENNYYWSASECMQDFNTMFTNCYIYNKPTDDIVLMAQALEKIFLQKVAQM

Consider `CCC(=O)N[C@@H]1C[C@H](C)N(C(C)=O)c2ccc(-c3cccc(NC(C)=O)c3)cc21` [compound 67], for which the EC50 at BRD4-BD2 came to 11 µM; on BRD2-BD2 it was 18 µM; on BRD3-BD1, 36 µM; at BRD4-BD1, 60 µM; on BRD2-BD1, 24 µM. The 2.1/2.2 at BRD2-BD2 came to 1.4.

As for `CC(=O)Nc1cccc(-c2ccc3c(c2)[C@H](NC(=O)c2ccc(F)cc2)C[C@H](C)N3C(C)=O)c1` [compound 68], the half-maximal effective concentration (EC50) at BRD4-BD2 came out at 20 µM; at BRD2-BD2, 10 µM; at BRD3-BD1, 41 µM; on BRD4-BD1, 80 µM; on BRD2-BD1, 70 µM. In addition, the 2.1/2.2 on BRD2-BD2 is on record as 6.9.

As for `CC(=O)Nc1cccc(-c2ccc3c(c2)[C@H](NC(=O)c2ccc(C(F)(F)F)cc2)C[C@H](C)N3C(C)=O)c1` [compound 69], the half-maximal effective concentration (EC50) came to 75 µM at BRD4-BD2; 2.7 µM at BRD2-BD2; 75 µM on BRD3-BD1; 74 µM at BRD4-BD1; 75 µM on BRD2-BD1. Besides, the 2.1/2.2 at BRD2-BD2 is 28.

Consider `CC(=O)Nc1cccc(-c2ccc3c(c2)[C@H](NCCCc2ccccc2)C[C@H](C)N3C(C)=O)c1` [compound 70], for which the EC50 on BRD4-BD2 was determined as 26 µM; at BRD2-BD2, 69 µM; at BRD3-BD1, 9.9 µM; at BRD4-BD1, 69 µM; on BRD2-BD1 it was 16 µM. Besides, the 2.1/2.2 at BRD2-BD2 worked out at 0.23.

`CC(=O)Nc1cccc(-c2ccc3c(c2)[C@H](NC(=O)c2ccc(Cl)cc2)C[C@H](C)N3C(C)=O)c1` [compound 72]: the concentration giving a half-maximal response (EC50) on BRD4-BD2 amounted to 51 µM; at BRD2-BD2, 51 µM; at BRD3-BD1, 27 µM; at BRD4-BD1, 39 µM; on BRD2-BD1, 51 µM. The 2.1/2.2 on BRD2-BD2 is reported as 1.0.

Take `CC(=O)Nc1cccc(-c2ccc3c(c2)[C@H](NC(=O)CC(C)C)C[C@H](C)N3C(C)=O)c1` [compound 73]: the half-maximal effective concentration (EC50) on BRD4-BD2 was 19 µM; at BRD2-BD2 it was 83 µM; at BRD3-BD1 it was 12 µM; at BRD4-BD1 it was 33 µM; on BRD2-BD1 it was 16 µM. In addition, the 2.1/2.2 on BRD2-BD2 is listed as 0.20.

As for `CC(=O)Nc1cccc(-c2ccc3c(c2)[C@H](NC(=O)CCc2ccccc2)C[C@H](C)N3C(C)=O)c1` [compound 74], the EC50 at BRD4-BD2 turned out to be 77 µM; on BRD2-BD2 it was 17 µM; at BRD3-BD1, 9.8 µM; on BRD4-BD1, 19 µM; on BRD2-BD1, 11 µM. Further, at BRD2-BD2, the 2.1/2.2 amounted to 0.65.

Turning to `CC(=O)Nc1cccc(-c2ccc3c(c2)[C@H](NCc2ccc(C(F)(F)F)cc2)C[C@H](C)N3C(C)=O)c1` [compound 75], the concentration for a half-maximal effect (EC50) at BRD4-BD2 was 53 µM; at BRD2-BD2 it was 53 µM; at BRD3-BD1, 36 µM; at BRD4-BD1 it was 53 µM; on BRD2-BD1 it was 53 µM. For the same compound, at BRD2-BD2, the 2.1/2.2 worked out at 1.0.

Consider `CC(=O)Nc1ccc(N[C@@H]2C[C@H](C)N(C(C)=O)c3ccc(-c4cccc(NC(C)=O)c4)cc32)cc1` [compound 76], for which the 50% effective concentration (EC50) on BRD4-BD2 worked out at 0.65 µM; on BRD2-BD2, 0.27 µM; on BRD3-BD1, 2.3 µM; on BRD4-BD1, 3.2 µM; on BRD2-BD1, 3.4 µM. At BRD2-BD2, the 2.1/2.2 is on record as 12.

For `CC(=O)N1c2ccc(-c3ccc4c(c3)OCCO4)cc2[C@H](NC(=O)OC(C)C)C[C@@H]1C` [compound 77], the EC50 on BRD4-BD2 was 14 µM; at BRD2-BD2 it was 9.7 µM; on BRD3-BD1, 10 µM; on BRD4-BD1 it was 15 µM; at BRD2-BD1, 16 µM. The 2.1/2.2 on BRD2-BD2 worked out at 1.6.

Regarding `CC(=O)N1c2ccc(-c3cccc(-n4cccn4)c3)cc2[C@H](NC(=O)OC(C)C)C[C@@H]1C` [compound 78], the EC50 on BRD4-BD2 turned out to be 6.7 µM; at BRD2-BD2, 2.9 µM; on BRD3-BD1, 4 µM; at BRD4-BD1, 6.1 µM; at BRD2-BD1, 7.7 µM. The 2.1/2.2 at BRD2-BD2 came to 2.6.

What is called EC50 is the concentration needed to bring the measured effect to its halfway point.
